Several values for one entry are separate records, joined by “and”; a condition that tells them apart may be missing. Equal values may be shown once. Read-outs that look alike come from different tables or passages of the source.
Key:
human recombinant GCL = human recombinant GCL (Homo sapiens (Human), UniProt P48506); assay: GCL enzyme profiling assay (ADP-Glo luminescence); type: biochemical; details: human recombinant GCL 5 nM, 1 h preincubation with ATP
Procedure, shortened: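 ADP-Glo luminescence readout; 5 nM enzyme preincubated 1 h at 22 °C with 0.6 mM ATP, then started with 1 mM glutamate and 1.2 mM α-aminobutyrate, stopped after 2 h. Buffer: HEPES pH 7.5, MgCl2, DTT, BSA, 0.2% F-127, 1% DMSO. IC50 from four-parameter logistic fit.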

RKN cells = assay: RKN cell profiling assay (cell viability, CellTiter-Glo); type: cell-based; details: 96 h, 96 h exposure, read-out: Cell Killing EC50
Procedure, shortened: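 Cells seeded at 1,000/well in F-12 with 10% FBS, left to adhere 24 h, then compound-treated for 96 h at 0.5% final DMSO. Viability by CellTiter-Glo luminescence; EC50 from four-parameter logistic fit. Ferroptosis rescue runs included 1.5 μM ferrostatin-1 added at seeding.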

[1] = read-out: GCL IC50 (mM), individual values in parentheses

Sequence of human recombinant GCL (P48506 whole entry): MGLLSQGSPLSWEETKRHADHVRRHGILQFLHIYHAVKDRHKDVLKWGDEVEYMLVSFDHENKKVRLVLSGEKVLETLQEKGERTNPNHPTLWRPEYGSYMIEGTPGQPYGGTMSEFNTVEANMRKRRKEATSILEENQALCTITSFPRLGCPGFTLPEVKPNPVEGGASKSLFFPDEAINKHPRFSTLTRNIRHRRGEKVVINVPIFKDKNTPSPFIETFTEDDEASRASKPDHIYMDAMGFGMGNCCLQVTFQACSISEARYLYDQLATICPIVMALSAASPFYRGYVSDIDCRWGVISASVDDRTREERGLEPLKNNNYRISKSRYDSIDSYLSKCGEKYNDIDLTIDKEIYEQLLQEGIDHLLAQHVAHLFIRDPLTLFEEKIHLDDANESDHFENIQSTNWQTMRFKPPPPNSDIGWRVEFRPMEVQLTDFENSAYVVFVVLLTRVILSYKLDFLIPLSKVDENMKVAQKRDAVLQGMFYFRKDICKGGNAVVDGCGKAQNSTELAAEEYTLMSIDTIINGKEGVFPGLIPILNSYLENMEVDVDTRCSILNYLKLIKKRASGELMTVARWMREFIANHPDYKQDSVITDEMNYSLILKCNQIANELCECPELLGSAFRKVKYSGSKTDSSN

| Structure (SMILES) | IC50 (human recombinant GCL; read-out: GCL IC50) | IC50 (human recombinant GCL; [1]) | EC50 (RKN cells) |
| --- | --- | --- | --- |
| COC(=O)[C@@H](N)CCS(=N)(=O)CCc1nnn[nH]1 (stereo partly drawn) [Compound 69, (2S)-methyl 4-(2-(1H-tetrazol-5-yl)ethylsulfonimidoyl)-2-aminobutanoate] | > 2 mM |  | ≥ 1 mM |
| COC(=O)[C@@H](N)CCS(=N)(=O)CCCc1ccccc1 (stereo partly drawn) [Compound 70, (2S)-methyl 2-amino-4-(3-phenylpropylsulfonimidoyl)butanoate] | 0.02 to 2 mM |  | ≥ 1 mM |
| CCCCS(=N)(=O)CC[C@H](N)C(=O)OCc1oc(=O)oc1C (stereo partly drawn) [Compound 73, (2S)-(5-methyl-2-oxo-1,3-dioxol-4-yl)methyl 2-amino-4-(butylsulfonimidoyl) butanoate] | > 2 mM and 0.02 to 2 mM |  | ≥ 1 mM |
| COC(=O)[C@@H](N)CCS(=N)(=O)CCC1CCCC1 (stereo partly shown) [Compound 74] | 0.02 to 2 mM |  | < 1 mM |
| COCCCS(=N)(=O)CC[C@H](N)C(=O)OC (stereo partly shown) [Compound 75] | > 2 mM and 0.02 to 2 mM | 2.35 mM and 0.594 mM | ≥ 1 mM |
| COCCCCS(=N)(=O)CC[C@H](N)C(=O)OC (stereo partly shown) [Compound 76] | 0.02 to 2 mM |  | ≥ 1 mM |
| CCCCOC(=O)[C@@H](N)CCS(=N)(=O)CCC1CCCC1 (stereo partly shown) [Compound 77] | > 2 mM |  | < 1 mM |
| CCCCOC(=O)[C@@H](N)CCS(=N)(=O)CCC1CCCCC1 (stereo partly shown) [Compound 78] | 0.02 to 2 mM |  | < 1 mM |
| CCCCOC(=O)[C@@H](N)CCS(=N)(=O)CCCC(F)(F)F (stereo partly shown) [Compound 79] | > 2 mM |  | < 1 mM |
| N=S(=O)(CCCC(F)(F)F)CC[C@H](N)C(=O)OC1CCCCC1 (stereo partly shown) [Compound 80] | 0.02 to 2 mM |  | < 1 mM |
| N=S(=O)(CCCC(F)(F)F)CC[C@H](N)C(=O)OCC1CCCCC1 (stereo partly shown) [Compound 81] | 0.02 to 2 mM |  | < 1 mM |
| CCCC(C)OC(=O)[C@@H](N)CCS(=N)(=O)CCCC(F)(F)F (stereo partly shown) [Compound 82] | 0.02 to 2 mM |  | < 1 mM |
| COCCOC(=O)[C@@H](N)CCS(=N)(=O)CCCC(F)(F)F (stereo partly shown) [Compound 83] | 0.02 to 2 mM |  | < 1 mM |
| N=S(=O)(CCCC(F)(F)F)CC[C@H](N)C(=O)OC1CCOCC1 (stereo partly shown) [Compound 84] | 0.02 to 2 mM |  | < 1 mM |
| N=S(=O)(CCCC(F)(F)F)CC[C@H](N)C(=O)OCc1ccccc1 (stereo partly shown) [Compound 86] | 0.02 to 2 mM |  | < 1 mM |
| CCCCOC(=O)[C@@H](N)CCS(=N)(=O)CCC(C)(C)c1ccccc1 (stereo partly shown) [Compound 87] | 0.02 to 2 mM |  | < 1 mM |
| CC(C)OC(=O)[C@@H](N)CCS(=N)(=O)CCCC(F)(F)F (stereo partly shown) [Compound 88] | 0.02 to 2 mM |  | < 1 mM |
| CCCC(C)(C)OC(=O)[C@@H](N)CCS(=N)(=O)CCCC(F)(F)F (stereo partly shown) [Compound 89] | > 2 mM |  | < 1 mM |
| CCCCOC(=O)[C@@H](N)CC[S@@](=N)(=O)CCCC(F)(F)F [Compound 90] | 0.02 to 2 mM |  | < 1 mM |
| CCCCOC(=O)[C@@H](N)CCS(=N)(=O)CCc1ccccc1Cl (stereo partly shown) [Compound 91] | 0.02 to 2 mM |  | < 1 mM |
| CCCCOC(=O)[C@@H](N)CCS(=N)(=O)CCc1cccc(F)c1C(F)(F)F (stereo partly shown) [Compound 92] | 0.02 to 2 mM |  | < 1 mM |
| CCCCOC(=O)[C@@H](N)CCS(=N)(=O)CCc1ccccc1C(F)(F)F (stereo partly shown) [Compound 94] | 0.02 to 2 mM |  | < 1 mM |
| CCCCOC(=O)[C@@H](N)CCS(=N)(=O)CCC(C)C (stereo partly shown) [Compound 95] | 0.02 to 2 mM |  | < 1 mM |
| CCCCS(=N)(=O)CC[C@H](N)C(=O)NS(C)(=O)=O (stereo partly drawn) [Compound 104, (2S)-2-amino-4-(butylsulfonimidoyl)-N-(methylsulfonyl)butanamide] | 0.02 to 2 mM |  | ≥ 1 mM |
| CCCCS(=N)(=O)CC[C@H](N)C(N)=O (stereo partly drawn) [Compound 105, (2S)-2-amino-4-(butylsulfonimidoyl)butanamide] | > 2 mM |  | ≥ 1 mM |
| CCCCS(=N)(=O)CC[C@H](N)C(=O)NS(=O)(=O)C(F)(F)F (stereo partly shown) [Compound 108] | > 2 mM |  | ≥ 1 mM |
| CCCCS(=N)(=O)CC[C@H](N)C(=O)NS(=O)(=O)C1CC1 (stereo partly shown) [Compound 109] | 0.02 to 2 mM |  | ≥ 1 mM |
| CCCCS(=N)(=O)CC[C@H](N)C(=O)NCC(N)=O (stereo partly shown) [Compound 112] | 0.02 to 2 mM |  | ≥ 1 mM |

Further lines, with some results ahead:

| IC50 (human recombinant GCL; read-out: GCL IC50) | IC50 (human recombinant GCL; [1]) | Structure (SMILES) | EC50 (RKN cells) |
| --- | --- | --- | --- |
| 0.02 to 2 mM |  | COC(=O)[C@@H](N)CCS(=N)(=O)CCCC1CC1 (stereo partly drawn) [Compound 71, (2S)-methyl 2-amino-4-(3-cyclopropylpropylsulfonimidoyl)butanoate] | ≥ 1 mM |
| 0.02 to 2 mM |  | CCCCOC(=O)[C@@H](N)CCS(=N)(=O)CCC(C)(C)C (stereo partly drawn) [Compound 72, (2S)-butyl 2-amino-4-(3,3-dimethylbutylsulfonimidoyl)butanoate] | < 1 mM |
| 0.02 to 2 mM |  | CC(C)(C)OC(=O)[C@@H](N)CC[S@@](=N)(=O)CCCC(F)(F)F [Compound 93] | < 1 mM |
| > 2 mM |  | CC(C)(C)CCS(=N)(=O)CC[C@H](N)C(=O)OC1CCCCC1 (stereo partly shown) [Compound 97] | < 1 mM |
| > 2 mM |  | CCCC(C)(C)OC(=O)[C@@H](N)CCS(=N)(=O)CCC(C)(C)C (stereo partly shown) [Compound 99] | < 1 mM |
| > 2 mM |  | CCCCNC(=O)[C@@H](N)CCS(=N)(=O)CCC(C)(C)C (stereo partly drawn) [Compound 100, (2S)-2-amino-N-butyl-4-(3,3-dimethylbutylsulfonimidoyl)butanamide] | < 1 mM |
| > 2 mM |  | CC(C)(C)CCS(=N)(=O)CC[C@H](N)C(=O)Nc1cccnc1 (stereo partly drawn) [Compound 101, (2S)-2-amino-4-(3,3-dimethylbutylsulfonimidoyl)-N-(pyridin-3-yl)butanamide] | < 1 mM |
| > 2 mM |  | CCCCS(=N)(=O)CC[C@H](N)C(=O)NCC#N (stereo partly shown) [Compound 106] | ≥ 1 mM |
| 0.02 to 2 mM |  | CC(C)(C)CCS(=N)(=O)CC[C@H](N)C(=O)NS(C)(=O)=O (stereo partly shown) [Compound 111] | ≥ 1 mM |
| 0.02 to 2 mM |  | CC(C)(C)CCS(=N)(=O)CC[C@H](N)C(=O)NC1CC1 (stereo partly shown) [Compound 113] | < 1 mM |
| > 2 mM |  | CC(C)(C)CCS(=N)(=O)CC[C@H](N)C(=O)NCC(F)(F)F (stereo partly shown) [Compound 114] | < 1 mM |
| > 2 mM |  | CN(C)C(=O)[C@@H](N)CCS(=N)(=O)CCC(C)(C)C (stereo partly shown) [Compound 115] | ≥ 1 mM |
| > 2 mM |  | CC(C)(C)CCS(=N)(=O)CC[C@H](N)C(=O)N1CCCC1 (stereo partly shown) [Compound 116] | ≥ 1 mM |
| > 2 mM |  | CC(C)(C)CCS(=N)(=O)CC[C@H](N)C(=O)NC(C)(C)C (stereo partly shown) [Compound 117] | ≥ 1 mM |
| > 2 mM |  | CC(C)(C)CCS(=N)(=O)CC[C@H](N)C(=O)Nc1ccccc1 (stereo partly shown) [Compound 118] | < 1 mM |
| > 2 mM |  | CC(C)(C)CCS(=N)(=O)CC[C@H](N)C(=O)NC1CCOCC1 (stereo partly shown) [Compound 120] | < 1 mM |
| > 2 mM |  | CC(C)(C)CCS(=N)(=O)CC[C@H](N)C(=O)NCc1ccccc1 (stereo partly shown) [Compound 122] | < 1 mM |
| > 2 mM and 0.02 to 2 mM | > 10 mM and 1.16 mM | CC(C)(C)CCS(=N)(=O)CC[C@H](N)C(=O)Nc1cc[nH]n1 (stereo partly shown) [Compound 123] | ≥ 1 mM |
| > 2 mM |  | CC(C)(C)CCS(=N)(=O)CC[C@H](N)C(=O)NCc1cncs1 (stereo partly shown) [Compound 124] | < 1 mM |
| > 2 mM |  | CC(C)(C)CCS(=N)(=O)CC[C@H](N)C(=O)NCCC(C)(C)O (stereo partly shown) [Compound 125] | < 1 mM |
| > 2 mM |  | CC(C)(C)CCS(=N)(=O)CC[C@H](N)C(=O)NC(CO)CO (stereo partly shown) [Compound 126] | ≥ 1 mM |
| > 2 mM |  | CC(C)(C)CCS(=N)(=O)CC[C@H](N)C(=O)Nc1ccncc1 (stereo partly shown) [Compound 127] | < 1 mM |
| 0.02 to 2 mM |  | CC(C)(C)CCS(=N)(=O)CC[C@H](N)C(=O)Nc1ccccn1 (stereo partly shown) [Compound 128] | < 1 mM |
| > 2 mM |  | CC(C)(C)CCS(=N)(=O)CC[C@H](N)C(=O)NC1COC1 (stereo partly shown) [Compound 129] | < 1 mM |
| > 2 mM and 0.02 to 2 mM | > 10 mM and 1.73 mM | N=S(=O)(CCCC(F)(F)F)CC[C@H](N)C(=O)NC1CC1 (stereo partly shown) [Compound 130] | < 1 mM |

Source: patent US20260034094A1, “COMPOSITIONS AND METHODS FOR INDUCING FERROPTOSIS” (Kojin Therapeutics, Inc., priority 2022, published 2026)
